Assay results as given in US9115092B2, “Substituted quinazoline and pyrido-pyrimidine derivatives” (Asana Biosciences, LLC, priority 2010, dated 2015).
pIC50: −log10 of the molar value.

Legend:
[1] = target: T1, PI3Kα (wild-type), P110/P85α (Homo sapiens, UniProt P42336); assay: PI3 Kinase TR-FRET assay, PI3Kα (wild-type); assay type: biochemical
T1 construct: made in house; host or cells: SF9 insect cells
Outline: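 Sf9-expressed His-purified P110/P85α (5 ng) preincubated 60 min RT with compound and PIP2 in buffer with 40 mM MgCl2, 5 mM DTT; reaction started with ATP (PIP2 and ATP both 10 μM), 30 min RT. PIP3 detected by TR-FRET displacement, 665/615 nm ratio; IC50 from dose-response curves.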

mTOR kinase = target: T2, mTOR kinase (Homo sapiens, UniProt P42345); assay: mTOR kinase TR-FRET assay; assay type: biochemical; conditions: read-out: mTO R
T2 construct: purchased Millipore, USA
Outline: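 Compounds preincubated 60 min with mTOR (5 ng) in HEPES pH 7.5, EGTA, MnCl2; ULight-p70 S6K Thr389 peptide (50 nM) and ATP (20 μM) then added, 60 min at room temperature. EDTA-stopped, Eu-anti-phospho antibody detection by TR-FRET (665/615 nm); IC50 from variable-slope sigmoidal fit.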

T1 sequence (P42336 whole entry): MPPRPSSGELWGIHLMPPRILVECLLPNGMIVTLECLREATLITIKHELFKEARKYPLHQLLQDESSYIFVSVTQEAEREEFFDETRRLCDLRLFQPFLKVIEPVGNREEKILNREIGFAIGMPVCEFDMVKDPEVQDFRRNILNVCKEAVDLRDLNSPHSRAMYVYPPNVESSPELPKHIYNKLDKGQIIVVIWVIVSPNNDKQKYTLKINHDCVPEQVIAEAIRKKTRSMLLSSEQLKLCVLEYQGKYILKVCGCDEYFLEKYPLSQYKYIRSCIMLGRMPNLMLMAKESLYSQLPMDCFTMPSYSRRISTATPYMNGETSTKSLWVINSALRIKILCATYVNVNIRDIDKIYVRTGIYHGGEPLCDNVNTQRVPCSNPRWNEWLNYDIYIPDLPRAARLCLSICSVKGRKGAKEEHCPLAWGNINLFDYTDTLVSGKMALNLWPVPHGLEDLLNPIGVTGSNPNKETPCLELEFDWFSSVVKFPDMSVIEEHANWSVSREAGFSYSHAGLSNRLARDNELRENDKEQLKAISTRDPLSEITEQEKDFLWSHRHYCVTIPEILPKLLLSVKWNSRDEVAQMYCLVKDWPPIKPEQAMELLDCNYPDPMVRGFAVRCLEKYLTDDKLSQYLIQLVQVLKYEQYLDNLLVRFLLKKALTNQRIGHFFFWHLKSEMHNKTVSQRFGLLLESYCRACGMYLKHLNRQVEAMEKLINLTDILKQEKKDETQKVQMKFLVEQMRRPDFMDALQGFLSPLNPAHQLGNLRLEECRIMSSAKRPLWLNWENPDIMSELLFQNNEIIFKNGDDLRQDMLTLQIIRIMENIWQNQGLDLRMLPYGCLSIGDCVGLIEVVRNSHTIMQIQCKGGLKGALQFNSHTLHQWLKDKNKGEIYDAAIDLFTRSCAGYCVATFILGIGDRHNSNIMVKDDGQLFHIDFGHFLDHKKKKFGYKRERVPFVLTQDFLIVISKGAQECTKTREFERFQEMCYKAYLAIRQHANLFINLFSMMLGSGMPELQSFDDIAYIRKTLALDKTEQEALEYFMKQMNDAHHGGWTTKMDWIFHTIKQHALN
T1 sequence (P27986 whole entry partner): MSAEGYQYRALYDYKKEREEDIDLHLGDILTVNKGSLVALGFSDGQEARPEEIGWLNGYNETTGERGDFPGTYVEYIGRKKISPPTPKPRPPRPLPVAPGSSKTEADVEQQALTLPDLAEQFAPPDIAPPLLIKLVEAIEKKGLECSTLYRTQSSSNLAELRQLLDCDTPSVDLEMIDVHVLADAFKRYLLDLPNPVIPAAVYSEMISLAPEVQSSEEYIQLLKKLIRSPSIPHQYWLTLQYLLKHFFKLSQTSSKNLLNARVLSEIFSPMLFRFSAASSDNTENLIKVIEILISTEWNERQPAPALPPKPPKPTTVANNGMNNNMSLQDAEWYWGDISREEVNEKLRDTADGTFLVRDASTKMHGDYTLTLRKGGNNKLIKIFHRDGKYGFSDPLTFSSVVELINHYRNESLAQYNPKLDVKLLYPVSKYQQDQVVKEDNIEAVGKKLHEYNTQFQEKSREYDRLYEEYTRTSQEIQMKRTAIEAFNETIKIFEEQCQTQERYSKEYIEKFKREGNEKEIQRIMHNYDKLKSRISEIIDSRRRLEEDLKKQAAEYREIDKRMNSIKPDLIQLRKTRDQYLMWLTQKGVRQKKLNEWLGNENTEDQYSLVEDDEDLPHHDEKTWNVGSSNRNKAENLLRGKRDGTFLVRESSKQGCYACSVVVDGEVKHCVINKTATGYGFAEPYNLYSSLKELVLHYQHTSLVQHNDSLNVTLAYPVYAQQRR

SMILES | pIC50 [1] | pIC50 (mTOR kinase)
COc1ccc2c(N3CCOCC3)nc(-c3ccc(NC(=O)Nc4ccc(C(=O)N(C)C)cc4)c(F)c3)nc2c1 [Example 182, 4-(3-(2-fluoro-4-(7-methoxy-4-morpholino-quinazolin-2-yl)phenyl)ureido)-N,N-dimethyl-benzamide] | 6.70 to 7.30 | > 7.30
CN1CCN(C(=O)c2ccc(NC(=O)Nc3ccc(-c4nc(N5CCOCC5)c5ccc(-c6ccncc6)cc5n4)cc3F)cc2)CC1 [Example 212, 1-(2-fluoro-4-(4-morpholino-7-(pyridin-4-yl)quinazolin-2-yl)phenyl)-3-(4-(4-methylpiperazine-1-carbonyl)phenyl)urea] | 6.70 to 7.30 | 6.70 to 7.30
CN(C)C(=O)c1ccc(NC(=O)Nc2ccc(-c3nc(N4CCOCC4)c4ccc(-c5ccc(CO)o5)cc4n3)cc2)c(F)c1 [Example 219, 3-fluoro-4-(3-(4-(7-(5-(hydroxymethyl)furan-2-yl)-4-morpholino-quinazolin-2-yl)phenyl)ureido)-N,N-dimethyl-benzamide] | 6.70 to 7.30 | 6.70 to 7.30
CC(O)c1ccc(-c2ccc3c(N4CCOCC4)nc(-c4ccc(NC(=O)Nc5ccc(C(=O)N(C)C)cc5F)cc4)nc3c2)o1 (stereo not shown) [Example 227, 3-fluoro-4-(3-(4-(7-(5-(1-hydroxyethyl)furan-2-yl)-4-morpholino-quinazolin-2-yl)phenyl)ureido)-N,N-dimethyl-benzamide] | 5.00 to 6.70 | 6.70 to 7.30
O=C(Nc1ccc(C(=O)N2CCC(O)C2)cc1)Nc1ccc(-c2nc(N3CCOCC3)c3ccc(-c4ccco4)cc3n2)cc1 (stereo not shown) [Example 232, 1-(4-(7-(furan-2-yl)-4-morpholino-quinazolin-2-yl)phenyl)-3-(4-(3-hydroxypyrrolidine-1-carbonyl)phenyl)urea] | > 7.30 | > 7.30
CN(C)CCNC(=O)c1ccc(NC(=O)Nc2ccc(-c3nc(N4CCOCC4)c4ccc(-c5ccco5)cc4n3)cc2)cc1 [Example 235, N-(2-(dimethylamino)ethyl)-4-(3-(4-(7-(furan-2-yl)-4-morpholino-quinazolin-2-yl)phenyl)ureido)-benzamide] | > 7.30 | > 7.30
Cc1ccc(-c2ccc3c(N4CCOCC4)nc(-c4ccc(NC(=O)Nc5ccc(C(=O)N(C)C)cc5)cc4F)nc3c2)o1 [Example 239, 4-(3-(3-fluoro-4-(7-(5-methylfuran-2-yl)-4-morpholino-quinazolin-2-yl)phenyl)ureido)-N,N-dimethyl-benzamide] | 6.70 to 7.30 | 6.70 to 7.30
CN(C)C(=O)c1ccc(NC(=O)Nc2ccc(-c3nc(N4CCOCC4)c4ccc(-c5cncnc5)cc4n3)c(F)c2)cn1 [Example 251, 5-(3-(3-fluoro-4-(4-morpholino-7-(pyrimidin-5-yl)quinazolin-2-yl)phenyl)ureido)-N,N-dimethylpicolinamide] | 5.00 to 6.70 | > 7.30
Cc1noc(C)c1-c1ccc2c(N3CCOCC3)nc(-c3ccc(NC(=O)Nc4ccc(C(=O)N(C)C)cc4)cc3F)nc2c1 [Example 252, 4-(3-(4-(7-(3,5-dimethylisoxazol-4-yl)-4-morpholino-quinazolin-2-yl)-3-fluorophenyl)ureido)-N,N-dimethyl-benzamide] | 6.70 to 7.30 | 6.70 to 7.30
CC1CN(c2nc(-c3ccc(NC(=O)Nc4ccc(C(=O)N(C)C)cc4)cc3F)nc3cc(-c4cncnc4)ccc23)CCO1 (stereo not shown) [Example 254, 4-(3-(3-fluoro-4-(4-(2-methylmorpholino)-7-(pyrimidin-5-yl)quinazolin-2-yl)phenyl)ureido)-N,N-dimethyl-benzamide] | 5.00 to 6.70 | 6.70 to 7.30
Cc1ccc(-c2ccc3c(N4CCOCC4)nc(-c4ccc(NC(=O)Nc5ccc(C(=O)N(C)C)c(F)c5)cc4)nc3c2)o1 [Example 266, 2-fluoro-N,N-dimethyl-4-(3-(4-(7-(5-methylfuran-2-yl)-4-morpholino-quinazolin-2-yl)phenyl)ureido)-benzamide] | 6.70 to 7.30 | 6.70 to 7.30
Cc1nn(C)c(C)c1-c1ccc2c(N3CCOCC3)nc(-c3ccc(NC(=O)Nc4ccc(C(=O)N(C)C)cc4)cc3F)nc2c1 [Example 269, 4-(3-(3-fluoro-4-(4-morpholino-7-(1,3,5-trimethyl-1H-pyrazol-4-yl)quinazolin-2-yl)phenyl)ureido)-N,N-dimethyl-benzamide] | > 7.30 | > 7.30

Other lines, results leading:

pIC50 [1] | pIC50 (mTOR kinase) | SMILES
6.70 to 7.30 | > 7.30 | CN(C)CCNC(=O)c1ccc(NC(=O)Nc2ccc(-c3nc(N4CCOCC4)c4ccc(-c5cncnc5)cc4n3)cc2)cc1 [Example 192, N-(2-(dimethylamino)ethyl)-4-(3-(4-(4-morpholino-7-(pyrimidin-5-yl)quinazolin-2-yl)phenyl)ureido)-benzamide]
> 7.30 | 6.70 to 7.30 | CN(C)C(=O)c1ccc(NC(=O)Nc2ccc(-c3nc(N4CCOCC4)c4ncc(-c5ccc(CO)o5)cc4n3)cc2F)cc1 [Example 218, 4-(3-(2-fluoro-4-(7-(5-(hydroxymethyl)furan-2-yl)-4-morpholino-pyrido[3,2-d]pyrimidin-2-yl)phenyl)ureido)-N,N-dimethyl-benzamide]
6.70 to 7.30 | > 7.30 | CN(C)CCNC(=O)c1ccc(-c2ccc3c(N4CCOCC4)nc(-c4ccc(NC(=O)Nc5ccc(C(=O)N(C)C)cc5)cc4)nc3c2)o1 [Example 225, N-(2-(dimethylamino)ethyl)-5-(2-(4-(3-(4-(dimethylcarbamoyl)phenyl)ureido)phenyl)-4-morpholino-quinazolin-7-yl)furan-2-carboxamide]
> 7.30 | > 7.30 | CN(C)C(=O)c1ccc(NC(=O)Nc2ccc(-c3nc(N4CCOCC4)c4ccc(-c5ccc(C(=O)N(C)C)o5)cc4n3)cc2)cc1 [Example 229, 5-(2-(4-(3-(4-(dimethylcarbamoyl)phenyl)ureido)phenyl)-4-morpholine-quinazolin-7-yl)-N,N-dimethylfuran-2-carboxamide]
> 7.30 | > 7.30 | CN(C)C(=O)c1ccc(NC(=O)Nc2ccc(-c3nc(N4CCOCC4)c4ncc(-c5cnc(N(C)C)nc5)cc4n3)cc2)cc1 [Example 230, 4-(3-(4-(7-(2-(dimethylamino)pyrimidin-5-yl)-4-morpholino-pyrido[3,2-d]pyrimidin-2-yl)phenyl)ureido)-N,N-dimethyl-benzamide]
6.70 to 7.30 | > 7.30 | CN(C)C(=O)c1ccc(NC(=O)Nc2ccc(-c3nc(N4CCOCC4)c4ccc(-c5cnc(N(C)C)nc5)cc4n3)cc2F)cc1 [Example 231, 4-(3-(4-(7-(2-(dimethylamino)pyrimidin-5-yl)-4-morpholino-quinazolin-2-yl)-2-fluorophenyl)ureido)-N,N-dimethyl-benzamide]
> 7.30 | > 7.30 | CN(C)CCN(C)C(=O)c1ccc(NC(=O)Nc2ccc(-c3nc(N4CCOCC4)c4ccc(-c5ccco5)cc4n3)cc2)cc1 [Example 236, N-(2-(dimethylamino)ethyl)-4-(3-(4-(7-(furan-2-yl)-4-morpholino-quinazolin-2-yl)phenyl)ureido)-N-methyl-benzamide]
> 7.30 | > 7.30 | CN(C)C(=O)c1ccc(NC(=O)Nc2ccc(-c3nc(N4CCOCC4)c4ncc(-c5cccnc5F)cc4n3)cc2)cc1F [Example 248, 2-fluoro-4-(3-(4-(7-(2-fluoropyridin-3-yl)-4-morpholino-pyrido[3,2-d]pyrimidin-2-yl)phenyl)ureido)-N,N-dimethyl-benzamide]
6.70 to 7.30 | > 7.30 | CN(C)C(=O)c1ccc(NC(=O)Nc2ccc(-c3nc(N4CCOCC4)c4ccc(-c5cnn(C)c5)cc4n3)c(F)c2)cc1 [Example 249, 4-(3-(3-fluoro-4-(7-(1-methyl-1H-pyrazol-4-yl)-4-morpholino-quinazolin-2-yl)phenyl)ureido)-N,N-dimethyl-benzamide]
6.70 to 7.30 | 6.70 to 7.30 | COc1ccc(-c2ccc3c(N4CCOCC4)nc(-c4ccc(NC(=O)Nc5ccc(C(=O)N(C)C)cc5)cc4F)nc3c2)cn1 [Example 258, 4-(3-(3-fluoro-4-(7-(6-methoxypyridin-3-yl)-4-morpholino-quinazolin-2-yl)phenyl)ureido)-N,N-dimethyl-benzamide]
> 7.30 | > 7.30 | CN(C)C(=O)c1ccc(NC(=O)Nc2ccc(-c3nc(N4CCOCC4)c4ncc(-c5cccnc5)cc4n3)c(F)c2)cc1 [Example 261, 4-(3-(3-fluoro-4-(4-morpholino-7-(pyridin-3-yl)pyrido[3,2-d]pyrimidin-2-yl)phenyl)ureido)-N,N-dimethyl-benzamide]
> 7.30 | > 7.30 | CN(C)C(=O)c1ccc(NC(=O)Nc2ccc(-c3nc(N4CCOCC4)c4ncc(-c5cncnc5)cc4n3)cc2)cc1F [Example 262, 2-fluoro-N,N-dimethyl-4-(3-(4-(4-morpholino-7-(pyrimidin-5-yl)pyrido[3,2-d]pyrimidin-2-yl)phenyl)ureido)-benzamide]
> 7.30 | > 7.30 | COc1ncc(-c2cnc3c(N4CCOCC4)nc(-c4ccc(NC(=O)Nc5ccc(C(=O)N(C)C)cc5)cc4F)nc3c2)cn1 [Example 263, 4-(3-(3-fluoro-4-(7-(2-methoxypyrimidin-5-yl)-4-morpholino-pyrido[3,2-d]pyrimidin-2-yl)phenyl)ureido)-N,N-dimethyl-benzamide]
> 7.30 | > 7.30 | CN(C)C(=O)c1ccc(NC(=O)Nc2ccc(-c3nc(N4CCOCC4)c4ncc(-c5cccnc5)cc4n3)cc2)cc1F [Example 264, 2-fluoro-N,N-dimethyl-4-(3-(4-(4-morpholino-7-(pyridin-3-yl)pyrido[3,2-d]pyrimidin-2-yl)phenyl)ureido)-benzamide]
